Measurements reported in ChEMBL document CHEMBL5331051, “Cationic, amphipathic small molecules based on a triazine-piperazine-triazine scaffold as a new class of antimicrobial agents” (Eur J Med Chem, 2022).
The source made the active and inactive calls. No cut-off for these calls is given here.

Key:
Pseudomonas aeruginosa [1] = test: Antibiofilm activity against multidrug-resistant Pseudomonas aeruginosa assessed as bacterial growth inhibition at 8 ug/ml relative to control; type: functional
Pseudomonas aeruginosa [2] = test: Antibiofilm activity against multidrug-resistant Pseudomonas aeruginosa assessed as bacterial growth inhibition at 1 ug/ml relative to control; type: functional
Pseudomonas aeruginosa [3] = test: Bactericidal activity against multidrug-resistant Pseudomonas aeruginosa CCARM 2095 measured after 24 hrs by time-kill kinetics assay; type: functional, organism-based
[4] = Drug localization in Escherichia coli KCTC 1682 cytoplasm incubated for 0.5 hrs by CDFA based confocal laser scanning microscopic analysis; type: ADME, subcellular
Pseudomonas aeruginosa [5] = test: Synergistic bactericidal activity against multidrug-resistant Pseudomonas aeruginosa CCARM 2095 at 0.5 times MIC measured after 60 mins in presence of 0.5 times MIC of chloramphenicol by time-kill kinetics assay; type: functional, organism-based
Pseudomonas aeruginosa [6] = test: Antibacterial activity against multidrug-resistant Pseudomonas aeruginosa CCARM 2095 strain assessed as bacterial growth inhibition by checkerboard assay; type: functional
Pseudomonas aeruginosa [7] = test: Antibacterial activity against multidrug-resistant Pseudomonas aeruginosa CCARM 2095 strain assessed as fractional inhibitory concentration by checkerboard assay; type: functional
Staphylococcus aureus [8] = test: Additive antibacterial activity against methicillin-resistant Staphylococcus aureus CCARM 3089 strain assessed as bacterial growth inhibition in presence of oxacillin by checkerboard assay; type: functional
Pseudomonas aeruginosa [9] = test: Additive antibacterial activity against multidrug-resistant Pseudomonas aeruginosa CCARM 2095 strain assessed as fractional inhibitory concentration index in presence of ciprofloxacin by checkerboard assay; type: functional
Staphylococcus aureus [10] = test: Antibacterial activity against methicillin-resistant Staphylococcus aureus CCARM 3089 strain assessed as bacterial growth inhibition in presence of ciprofloxacin by checkerboard assay; type: functional
Pseudomonas aeruginosa [11] = test: Additive antibacterial activity against multidrug-resistant Pseudomonas aeruginosa CCARM 2095 strain assessed as chloramphenicol fractional inhibitory concentration by checkerboard assay; type: functional
Staphylococcus aureus [12] = test: Antibacterial activity against multidrug-resistant Staphylococcus aureus CCARM 3089 strain assessed as fractional inhibitory concentration by checkerboard assay; type: functional

Question: Which inhibition at 8 µg/mL (Pseudomonas aeruginosa [1]) does the source give for NCCN(CCN)c1nc(NCc2ccccc2)nc(N2CC(Cc3ccccc3)N(c3nc(NCc4ccccc4)nc(N(CCN)CCN)n3)CC2Cc2ccccc2)n1 (configuration not stated) here?
Answer: 100%

Question: And the inhibition at 1 µg/mL (Pseudomonas aeruginosa [2])?
Answer: 50%

Question: And the Activity (Pseudomonas aeruginosa [3])?
Answer: inactive

Question: What about the Drug uptake [4] of the same compound?
Answer: Active

Question: And the Activity (Pseudomonas aeruginosa [5])?
Answer: Active

Question: Which MIC (Pseudomonas aeruginosa [6]) does the source give for NCCNc1nc(NCCN)nc(N2CC(Cc3ccccc3)N(c3nc(NCCN)nc(NCCN)n3)CC2Cc2ccccc2)n1 (configuration not stated) here?
Answer: 16 µg/mL

Question: And the FIC (Pseudomonas aeruginosa [7])?
Answer: 0.25

Question: Which MIC (Staphylococcus aureus [8]) does the source give for N=C(N)NCCNc1nc(NCCNC(=N)N)nc(N2CC(Cc3ccccc3)N(c3nc(NCCNC(=N)N)nc(NCCNC(=N)N)n3)CC2Cc2ccccc2)n1 (configuration not stated) here?
Answer: 4 µg/mL

Question: What about the “fractional inhibitory concentration index (FICI)” value (Pseudomonas aeruginosa [9]) of the same compound?
Answer: 1

Question: What about the MIC (Staphylococcus aureus [10]) of the same compound?
Answer: 8 µg/mL

Question: What about the FIC (Pseudomonas aeruginosa [11]) of the same compound?
Answer: 0.25

Question: What about the FIC (Staphylococcus aureus [12]) of the same compound?
Answer: 1
